This passage reports viscosity and precipitation on storage results from patent US20070186358A1, “Concentrated optical brightener solutions” (priority 2004, published 2007).

A short description of data set [1]: Viscosity of concentrated aqueous solution. The following applies: aqueous solution of sodium salt, 0.330 mol/kg, 2.0% sodium chloride; at 20° C. It is filed as physicochemical. How it is done: (§1) A solution of 21.3 parts aniline-2,5-disulphonic acid and 6.7 parts sodium hydroxide in 30 parts water is added to a stirred suspension of 15.5 parts cyanuric chloride in 50 parts ice water. The pH is kept at 6 by the dropwise addition of 30% sodium hydroxide. The mixture is stirred below 10° C. until primary aromatic amine groups can no longer be detected by the diazo reaction. A solution of 14.8 parts 4,4′-diaminostilbene-2,2′-disulphonic acid and 3.2 parts sodium hydroxide in 20 parts water is then added, the pH is adjusted to between 6.5 and 7.5 by the addition of 30% sodium hydroxide and the mixture is stirred at 30° C. until a negative diazo reaction is obtained. A solution of 12.2 parts L-aspartic acid in 22.9 parts 16% sodium hydoxide is added, and the mixture is heated at reflux for 6 hours, the pH being kept at 7.5 to 8.5 by the addition of 30% sodium hydroxide. The aqueous solution so-formed of (2) in the form of its sodium salt, which is approximately 0.167 mol/kg in concentration, is desalinated by membrane filtration and concentrated to 0.330 mol/kg (50% by weight).
(§2) An aqueous solution of (3) in the form of its sodium salt at a concentration of 0.330 mol/kg (51% by weight) is prepared as described in Example 1 but using 13.5 parts L-glutamic acid in place of 12.2 parts L-aspartic acid.

Data set [2] is described as follows: Storage stability of concentrated aqueous solution (precipitation at 5° C.). The following applies: aqueous solution of sodium salt, 0.330 mol/kg, 2.0% sodium chloride, no solubilizing agent; 2 weeks at 5° C. It is filed as physicochemical. The method, then:
as §1, §2

Each structure is given as a SMILES string.

Regarding `O=C(O)CCC(Nc1nc(Nc2ccc(/C=C/c3ccc(Nc4nc(Nc5cc(S(=O)(=O)O)ccc5S(=O)(=O)O)nc(NC(CCC(=O)O)C(=O)O)n4)cc3S(=O)(=O)O)c(S(=O)(=O)O)c2)nc(Nc2cc(S(=O)(=O)O)ccc2S(=O)(=O)O)n1)C(=O)O` (stereo not shown) [Example 2], the viscosity in data set [1] is 0.23-0.25 Pa.s. For the same compound, in data set [2], the precipitation on storage entry is “no signs of precipitation”.

On to `O=C(O)CC(Nc1nc(Nc2ccc(/C=C/c3ccc(Nc4nc(Nc5cc(S(=O)(=O)O)ccc5S(=O)(=O)O)nc(NC(CC(=O)O)C(=O)O)n4)cc3S(=O)(=O)O)c(S(=O)(=O)O)c2)nc(Nc2cc(S(=O)(=O)O)ccc2S(=O)(=O)O)n1)C(=O)O` (stereo not shown) [Example 1], for which the viscosity in data set [1] is 0.23-0.25 Pa.s. Further, in data set [2], the precipitation on storage entry was “no signs of precipitation”.
